According to patent US20100280125A1, “MEDICINAL AGENT” (priority 2004, published 2010):

How the values were obtained:
[1] = system: melanoma 16; assay type: in vivo, mice; conditions: for mice survived as far as the 36th day: control sub groups of 10 mice, 5 mg in water solution as a drink; for findings during the dissection: first and second sub group of the control group, 5 mg as a drink
Experimental: B57 type mice in the test and control group (60 mice each) were injected with melanoma 16. The test group were divided into 6 sub groups and the control group was divided into 3 sub groups, each with 10 mice.

[2] = system: human malignant melanoma A 375; assay: replication of melanoma cells in test glasses; assay type: cell-based; conditions: a week at 37° C. in the dark, in comparison to physiological salt solution
Experimental: In addition, a third control group of test glasses (6 glasses) was formed with the same cancer cell pool and fibroblasts, into which adriamycin and cyclophosphan in the same dilution was introduced, as well as a corresponding test glass group with a physiological salt solution.
After thermostatization of the above-mentioned test glasses for a week at 37° C. (in the dark), the contents were analyzed.

[3] = system: papillary thyroid cancer; assay: treatment of patient R, papillary thyroid cancer; assay type: in vivo, human
Experimental: The patient was treated with the medicinal agent (B.V.2) for 2 weeks; one gelatine capsule two times a day with 20 mg medicinal agent perorally after food and enemas in a single dose of 100 ml solution, comprising 50 mg medicinal agent powder, diluted in 2 ml 70% ethyl alcohol and dissolved in 100 ml water solution with 0.9% NaCl.

[4] = system: cancer of the right ovary (recidiv); assay: treatment of patient I, recidiv of ovary cancer; assay type: in vivo, human
Experimental: Exstirpation of the uterus and the surrounding area on account of cancer of the right ovary was performed on patient I who was […] and had visited the doctor in November 2002. The tomogram that was dated 28 Aug.
The patient was treated with an enema of the rectum: over five days once a day, after five procedures once every other day and thereafter every third day for 15 enemas. They were treated with a single dose of 20 mg medicinal agent (B.V.2) per 15-20 ml water, diluted in 2 ml 70% ethyl alcohol.

[5] = 3 hours after taking the dose, over 7 days

Compound	mice survived as far as the 36th day [1] [mice]	findings during the dissection [1]	suppression of the replication of the melanoma cells ([2]; dilution of 10^−7 mmol/l) [%]	suppression of the replication of the melanoma cells ([2]; dilution of 10^−9 mmol/l) [%]	duration of the dissymmetric effect [3] [h]	ultrasound investigation after the treatment ([3]; 2 weeks, capsules 20 mg two times a day and enemas 50 mg, growth 5×3×1.7 cm before)	temperature on the left side of the body (dissymmetric effect) [3, 5]	temperature on the right side of the body (dissymmetric effect) [3, 5]	growth in control investigation using ultrasound ([4]; 2 Mar. 2004)	erythrocytes ([4]; after the treatment, before 2.5 million) [million]	thrombocytes ([4]; after the treatment, before 110,000)	leucocytes ([4]; after the treatment, before up to 10,000)
COc1cccc2c1C(=O)c1c(O)c3c(c(O)c1C2=O)C[C@@](O)(C(=O)CO)C[C@@H]3O[C@H]1C[C@H](N)[C@H](O)[C@H](C)O1 [adriamycin]	2	lung and liver injuries	42	30								
O=P1(N(CCCl)CCCl)NCCCO1 (stereo not shown) [cyclophosphan]	5	lung and liver injuries	55	35								
hexamethyl pararosanilin chloride [methyl violet 10B]					1.0 to 1.5	a primary growth and no metastases	37.3-38.6 °C	35.4-36.9 °C	no longer to be found	5.5	300,000	9,000
